Data taken from US20220008566A1, “Pharmaceutical Composition Comprising a Radiolabeled GRPR Antagonist and a Surfactant” (Advanced Accelerator Applications International SA, priority 2018, published 2022).

What was measured:
[1] = tested on: PC-3 cells; assay: Therapeutic efficacy of 177Lu-NeoBOMB1 in PC-3 xenografted mice; assay type: in vivo, balb c nu/nu mice; settings: for time to reach a tumor size of 2000 mm^3: 1 week apart, extrapolated growth curves; for animals without any tumor regrowth after a complete response: n=15
Experimental: Male balb c nu/nu mice were subcutaneously inoculated on the right shoulder with 200 μL 4×10^6 PC-3 cells (American Type Culture Collection) in inoculation medium (⅓ Matrigel high concentration (Corning)+⅔ Hank's balanced salt solution (Thermofisher Scientific)). Four weeks post tumor cell inoculation when an average tumor size of 543+177 mm^3 was reached, animals were divided in four groups: control group (n=10) and therapy group 1-3 (n=15 per group). To determine the efficacy of ^177Lu-NeoBOMB1, animals received either 3 sham injections (control group), 3×30 MBq/300 pmol ^177Lu-NeoBOMB1 (group 1), 3×40 MBq/400 pmol ^177Lu-NeoBOMB1 (group 2) or 3×60 MBq/600 pmol ^177Lu-NeoBOMB1 (group 3) under isoflurane/O2 anesthesia. Injections were administered intravenously and injections were given 1 week apart.
(§1) In both studies, animal weight and/or tumor size was measured bi-weekly. When tumor size was ≥2000 mm^3 or a decrease in animal weight ≥20% within 48 hours was observed, animals were removed from the study. In the efficacy study, animals were followed until the maximum allowed age of 230 days was reached.
The tumor doubling times were determined by fitting an exponential growth function to the tumor volume over time in the control group. In the therapy groups an interval with exponential tumor volume decline was fitted with onset of regrowth after the nadir time. The growth curves were extrapolated beyond the censoring time points for mice with too large tumors (>2000 mm^3) to determine average growth statistics. Tumor growth delay times were individually determined by comparing the times needed to reach the maximum tumor size of 2000 mm^3 with the mean time found in the control group.
Prism software (version 5.01, GraphPad Software) was used for statistical analyses. P values […] were considered statistically significant. The difference in tumor volume growths and delay times for the 4 groups were analyzed with the One-way ANOVA test with Bonferroni's multiple comparison test. Curve fitting was performed according to the least/square fit with the Pearson R^2 to quantify its goodness.

[2] = Dosimetry: estimated absorbed dose to tumor, pancreas and kidneys (RADAR realistic mouse model)
Excerpt: The RADAR realistic mouse model (Keenan M A, Stabin M G, Segars W P, Fernald M J. RADAR realistic animal model series for dose assessment. J Nucl Med. 2010; 51:471-476) with a weight of 25 g and data from previously published biodistribution and pharmacokinetic studies (Dalm S U, Bakker I L, de Blois E, et al. 68Ga/^177Lu-NeoBOMB1, a Novel Radiolabeled GRPR Antagonist for Theranostic Use in Oncology. J Nucl Med. 2017; 58:293-299) were used to calculate the dose to the tumor, pancreas and kidneys, when animals were treated with 3×30 MBq/300 pmol, […] or 3×60 MBq/600 pmol ^177Lu-NeoBOMB1. The biodistribution data of our previously published paper (Dalm S U, Bakker I L, de Blois E, et al. ^68Ga/^177Lu-NeoBOMB1, a Novel Radiolabeled GRPR Antagonist for Theranostic Use in Oncology. J Nucl Med. 2017; 58:293-299) were fitted with exponential curves to define the time-activity curve in the tumor and organs. The time integrated activities for ^177Lu were obtained by integrating these exponential curves folded with the 177Lu decay curve (T1/2=6.647 d). Absorbed doses per administered activities were obtained by multiplying with the organ S-values from Keenan et al. (Keenan M A, Stabin M G, Segars W P, Fernald M J. RADAR realistic animal model series for dose assessment. J Nucl Med. 2010; 51:471-476) or by using the spherical node S-values (Stabin M G, Konijnenberg M W. Re-evaluation of absorbed fractions for photons and electrons in spheres of various sizes. J Nucl Med. 2000; 41:149-160) for a 340 mg tumor.
An estimation was made of the radioactivity dose to the tumor, pancreas and kidneys after treatment with 3×30 MBq/300 pmol, 3×40 MBq/400 pmol or 3×60 MBq/600 pmol ^177Lu-NeoBOMB1 (See Table 3 below). For this it was assumed that tumor and organ uptake was similar after each injection.

[3] = tested on: non-tumor bearing balb c nu/nu male mice; assay: Kidney and pancreas toxicity of 177Lu-NeoBOMB1 treatment; assay type: in vivo; settings: for histopathology of the kidneys: 24 weeks after therapy
Experimental: To determine the effect of treatment on pancreas and kidney tissue, non-tumor bearing balb c nu/nu male mice received the same treatment as the animals included in the efficacy study. At 2 different time points after the last therapeutic injection (12 weeks and 24 weeks p.i.) animals were euthanized and pancreas and kidney tissue was collected for pathological analysis.
as §1
Pancreatic and kidney tissue collected for pathological analysis was formalin fixed and paraffin embedded. Hematoxylin and eosin staining was performed on […] thick tissue slices using the Ventana Symphony™ H&E protocol (Ventana), to determine differences in tissue structure between the 4 treatment groups. In total 4 tissue slices, […] apart from each other were evaluated of each organ. The hematoxylin and eosin staining's were evaluated by experienced pathologists.

[4] = 3×30 MBq/300 pmol, 1st injection
[5] = 3×30 MBq/300 pmol, 2nd injection
[6] = 3×30 MBq/300 pmol, 3rd injection
[7] = 3×40 MBq/400 pmol, 1st injection
[8] = 3×40 MBq/400 pmol, 2nd injection
[9] = 3×40 MBq/400 pmol, 3rd injection
[10] = 3×60 MBq/600 pmol, 1st injection
[11] = 3×60 MBq/600 pmol, 2nd injection
[12] = 3×60 MBq/600 pmol, 3rd injection

## CC(C)CC(CC(C)C)NC(=O)[C@H](Cc1cnc[nH]1)NC(=O)CNC(=O)[C@@H](NC(=O)[C@H](C)NC(=O)[C@H](Cc1c[nH]c2ccccc12)NC(=O)[C@H](CCC(N)=O)NC(=O)[C@@H](Cc1ccccc1)NC(=O)COCC(=O)Nc1ccc(CNC(=O)CN2CCN(CC(=O)O)CCN(CC(=O)O)CCN(CC(=O)O)CC2)cc1)C(C)C [^177Lu-NeoBOMB1, metal not drawn]
[1]; all treatment groups vs control group
  therapy efficacy: effective
[1]; group 1, 3×30 MBq/300 pmol
  Median survival: 82 days
  animals without any tumor regrowth after a complete response: two
[1]; group 1, 3×30 MBq/300 pmol i.v.
  time to reach a tumor size of 2000 mm^3: 97 ± 59 days
[1]; group 2, 3×40 MBq/400 pmol
  Median survival: 89 days
  animals without any tumor regrowth after a complete response: one
[1]; group 2, 3×40 MBq/400 pmol i.v.
  time to reach a tumor size of 2000 mm^3: 103 ± 66 days
[1]; group 3, 3×60 MBq/600 pmol
  Median survival: 99 days
[1]; group 3, 3×60 MBq/600 pmol i.v.
  time to reach a tumor size of 2000 mm^3: 95 ± 26 days
[2]; [4]
  Cumulative absorbed dose, Kidney: 1.7 Gy
  Cumulative absorbed dose, Pancreas: 7.9 Gy
  Cumulative absorbed dose, Tumor: 17 Gy
[2]; [5]
  Cumulative absorbed dose, Kidney: 3.4 Gy
  Cumulative absorbed dose, Pancreas: 16 Gy
  Cumulative absorbed dose, Tumor: 34 Gy
[2]; [6]
  Cumulative absorbed dose, Kidney: 5.1 Gy
  Cumulative absorbed dose, Pancreas: 32 Gy
  Cumulative absorbed dose, Tumor: 68 Gy
[2]; [7]
  Cumulative absorbed dose, Kidney: 2.3 Gy
  Cumulative absorbed dose, Pancreas: 11 Gy
  Cumulative absorbed dose, Tumor: 23 Gy
[2]; [8]
  Cumulative absorbed dose, Kidney: 4.5 Gy
  Cumulative absorbed dose, Pancreas: 21 Gy
  Cumulative absorbed dose, Tumor: 46 Gy
[2]; [9]
  Cumulative absorbed dose, Kidney: 6.8 Gy
  Cumulative absorbed dose, Pancreas: 42 Gy
  Cumulative absorbed dose, Tumor: 91 Gy
[2]; [10]
  Cumulative absorbed dose, Kidney: 3.4 Gy
  Cumulative absorbed dose, Pancreas: 16 Gy
  Cumulative absorbed dose, Tumor: 34 Gy
[2]; [11]
  Cumulative absorbed dose, Kidney: 6.8 Gy
  Cumulative absorbed dose, Pancreas: 32 Gy
  Cumulative absorbed dose, Tumor: 68 Gy
[2]; [12]
  Cumulative absorbed dose, Kidney: 10 Gy
  Cumulative absorbed dose, Pancreas: 64 Gy
  Cumulative absorbed dose, Tumor: 137 Gy
[3]; 12 and 24 weeks after last injection, in control as well as treated animals, not related to therapy
  histopathology of the kidneys, lymphocyte infiltration: small areas with lymphocyte infiltration
[3]; H&E, 12 and 24 weeks after last injection
  histopathology of the pancreas: no tissue damage or other abnormalities
[3]; all groups, follow-up up to 24 weeks
  animal weight: no critical decrease in weight
[3]; group 3 (3×60 MBq/600 pmol), both animals
  histopathology of the kidneys: mild chronic inflammatory response
[3]; lowest dose (3×30 MBq/300 pmol), ID: 864, unlikely related to therapy
  histopathology of the kidneys: atrophy and fibrosis were observed in the kidneys of only one animal
[3]; one animal from Group 1 (ID: 869)
  decrease in weight within 48 h: less than 10%
